“And” between values parts separate entries of the source, which are not always exact repeats. Identical values can stand only once. “Also recorded” adds a separate entry of the source.
Experiments:
[1] = tested on: CT-26 colon carcinoma tumors; experiment: CT-26 syngeneic mouse model of colon cancer, i.p. dosing (Examples 1-4); format: in vivo; settings: for tumor growth inhibition over time: TLR4 agonist 4, 20, 100 ug per mouse i.p. biweekly, vs vehicle (2% glycerol); for survivability: TLR4 agonist i.p. biweekly, vs vehicle
[2] = tested on: OX40 expression on human PBMCs; experiment: In vitro human PBMC assay, OX40 expression by flow cytometry; format: cell-based; settings: 24 hours, 0.01 μg/ml-1,000 μg/ml
Procedure: In vitro human peripheral blood mononuclear cell (PBMC) assay was performed to assess the effect of CRX601 on OX40 expression. Freshly isolated human PBMCs were checked for viability and were cultured in AIM-V serum free media at a density of two million cells per well in a 24-well non tissue culture treated plate. PBMCs were stimulated with a dose concentration (0.01 μg/ml-1,000 μg/ml, including a vehicle blank) of CRX-601 for 24 hours. By the end of incubation, cells were collected for flow cytometry assessment of OX40 expression.

TNF alpha and IL-12p70 = experiment: Multiplex cytokine analysis of plasma from CT-26 mice (Study 5); format: in vivo, mouse; settings: CRX-601 10 ug, OX-86, or both
Procedure: Tumors, blood and tissues were harvested from CT-26 mice on day 0, day 1 and day 8 after first CRX-601 dosing. Mouse white blood cells and dissociated tumor single cells were stained freshly with surface or intracellular staining antibodies for multicolor flow cytometry analysis for immunephenotyping. Multiplex cytokine analysis was performed using mouse plasma samples from the same study.
Results are the mean of five animals per cohort.

CT-26 tumor cells = experiment: CT-26 tumor re-challenge of tumor-free mice (Studies 6 and 7); format: in vivo, mouse; settings: vs naive control mice
Procedure: The in vivo anti-tumor efficacy of the TLR4 agonist (CRX601) was assessed in the murine CT-26 colon carcinoma syngeneic solid tumor model as a monotherapy and in combination with a rate anti-mouse OX40 antibody clone OX86. Seven to eight week old female Balb/c mice (BALB/cAnNCrl, Charles River) were used in these studies. Murine CT-26 colon carcinoma cells (ATCC catalog number CRL-2638 lot#59227052) were cultured in RPMI growth medium supplemented with 10% fetal bovine serum (FBS) in a humidified 37° C. incubator with 5% CO2. CT-26 cells cultured in logarithmic growth were harvested from tissue culture flasks and centrifuged for 5 minutes at 450×g at 4° C. for ten minutes to pellet cells. The supernatant was discarded, and cells were washed in ice cold phosphate buffered saline (PBS) without calcium and magnesium and centrifuged again for 5 minutes at 450×g at 4° C. for ten minutes to pellet cells. The cells were resuspended in sterile RPMI media without FBS and adjusted to a cell concentration of 500,000 cells/ml. […] Tumor volume was calculated using the formula (0.52)×(Length)×(Width^2). In studies 6 and 7, tumor-free mice were re-challenged with CT-26 tumor cells as described above, on the opposite flank from the original inoculation site and tumor growth was monitored, as described above. […]

[3] = tested on: CT-26 colon carcinoma tumors; experiment: In vivo anti-tumor efficacy in murine CT-26 colon carcinoma syngeneic solid tumor model (Example 5, Studies 1-4, 6, 7): tumor growth and survival; set-up: species or system mouse; settings: for tumor growth inhibition vs control Group 5: 12 days
Procedure: The in vivo anti-tumor efficacy of the TLR4 agonist (CRX601) was assessed in the murine CT-26 colon carcinoma syngeneic solid tumor model as a monotherapy and in combination with a rate anti-mouse OX40 antibody clone OX86. Seven to eight week old female Balb/c mice (BALB/cAnNCrl, Charles River) were used in these studies. Murine CT-26 colon carcinoma cells (ATCC catalog number CRL-2638 lot#59227052) were cultured in RPMI growth medium supplemented with 10% fetal bovine serum (FBS) in a humidified 37° C. incubator with 5% CO2. CT-26 cells cultured in logarithmic growth were harvested from tissue culture flasks and centrifuged for 5 minutes at 450×g at 4° C. […] to pellet cells. The supernatant was discarded, and cells were washed in ice cold phosphate buffered saline (PBS) without calcium and magnesium and centrifuged again for 5 minutes at 450×g at 4° C. […] to pellet cells. The cells were resuspended in sterile RPMI media without FBS and adjusted to a cell concentration of 500,000 cells/ml. 100 μl of the cell stock was implanted via subcutaneous injection into the right flank of each Balb/c mouse. After ten or eleven days when the average tumor size reached approximately 100 mm^3, mice were randomized into study cohorts according to tumor size and the first treatment dose was given. The TLR4 agonist (CRX601) or vehicle was dosed via a systemic intravenous or direct intratumoral injection as indicated. The CRX-601 vehicle used for intravenous and intratumoral dosing was […] where indicated. For CRX-601 liposomal intratumoral dosing, a DOPC/CHOL liposome prepared by GSK Lot #1783-157-B was used. The rat anti-mouse OX40 receptor antibody (clone OX86) (expressed and purified in-house from the rat hybridoma Grits ID 50776, BP232 2013) or Rat IgG1 isotype control antibody (BioXCell catalog # BE0088) was dosed via an intraperitoneal injection given twice per week for a total of six doses. Caliper measurements were taken three times per week to assess tumor growth, and mice with tumors <2,000 mm^3 were maintained on study from 30 up to approximately 115 days. Mice with tumors >2,000 mm^3 for 2 consecutive measurements or mice with tumors which formed open ulcers were removed from the study. Tumor volume was calculated using the formula (0.52)×(Length)×(Width^2). In studies 6 and 7, tumor-free mice were re-challenged with CT-26 tumor cells as described above, on the opposite flank from the original inoculation site and tumor growth was monitored, as described above. All studies were conducted in accordance with the GSK Policy on the Care, Welfare and Treatment of Laboratory Animals and were reviewed by the Institutional Animal Care and Use Committee at GSK.
For studies 1-4, to determine significance of tumor growth inhibition, tumor volumes at 11 (study 1), 15 (studies 2 and 3), or 19 (study 4) days after first dose were compared between the different treatment groups. Prior to the analysis, tumor volumes were natural log transformed due to the inequality of variance in the different treatment groups. ANOVA followed by pair-wise comparison was then carried out on the log transformed data. SAS 9.3 and R 3.0.2 analysis software was used. Kaplan-Meier (KM) method was carried out to estimate the survival probability of different treatment groups at a given time. The event for survival analysis was tumor volume of 2000 mm^3 or tumor ulceration, whichever came first. The exact time to cut-off volume was estimated by fitting a linear line between log tumor volume and day of two observations, the first observation that exceed the cut-off volume and the one observation that immediately preceded the cut-off volume. The median time to endpoint and its corresponding 95% confidence interval was calculated. Whether or not KM survival curves were statistically different between any two groups was then tested by log-rank test. […]

[4] = Study 1, 50 ug intratumoral, day 42
[5] = Study 2, 100 ug intravenous, day 32

CCCCCCCCCCC[C@H](CC(=O)N[C@H]1[C@H](OC[C@H](NC(=O)C[C@@H](CCCCCCCCCCC)OC(=O)CCCCCCCCC)C(=O)O)O[C@H](CO)[C@@H](OP(=O)(O)O)[C@@H]1OC(=O)C[C@@H](CCCCCCCCCCC)OC(=O)CCCCCCCCC)OC(=O)CCCCCCCCC [CRX-527]
tumor growth inhibition over time [1]: inhibited tumor growth in a dose-dependent manner; also recorded: dose-dependent anti-tumor activity | survivability [1]: Dose dependence was also seen in the survivability

CCCCCCCCCCC[C@H](CC(=O)N[C@H]1[C@H](OC[C@H](NC(=O)C[C@@H](CCCCCCCCCCC)OCCCCCCCCCC)C(=O)O)O[C@H](CO)[C@@H](OP(=O)(O)O)[C@@H]1OC(=O)C[C@@H](CCCCCCCCCCC)OCCCCCCCCCC)OCCCCCCCCCC [CRX-601]
OX40 expression on dendritic cells [2]: quick upregulation of OX40 receptor expression | OX40 expression on human CD4+ T cells [2]: quick upregulation of OX40 receptor expression | OX40 expression on monocytes [2]: quick upregulation of OX40 receptor expression | tumor growth inhibition over time [1]: inhibited tumor growth in a dose-dependent manner; also recorded: dose-dependent anti-tumor activity | survivability [1]: Dose dependence was also seen in the survivability | TNF alpha (TNF alpha and IL-12p70; 1 and 8 days post dosing): increase | IL-12p70 (TNF alpha and IL-12p70; only detectable at 8 days post dosing): increase | tumor growth after CT26 re-challenge of tumor-free mice (CT-26 tumor cells; Study 6, re-challenge on day 68): persistent anti-tumor memory immunity | tumor growth after CT26 re-challenge of tumor-free mice (CT-26 tumor cells; Study 7, re-challenge on day 80): persistent anti-tumor memory | tumor-free mice among mice remaining on study ([3]; Study 1, 10 ug intratumoral, day 42): single mouse remaining in the 10 μg group was tumor-free | tumor growth inhibition vs vehicle ([3]; Study 1, 10 ug/mouse intratumoral twice per week x6, 11 days after initial dose): statistically significant | tumor volume of remaining mouse not tumor-free [3, 4]: 854.19 mm^3 | tumor-free mice among mice remaining on study [3, 4]: Three of the four | increase in survival vs vehicle ([3]; Study 1, 50 ug intratumoral, day 42 post tumor cell inoculation): statistically significant | tumor growth inhibition vs vehicle ([3]; Study 1, 50 ug/mouse intratumoral single dose, 11 days after initial dose): statistically significant | anti-tumor activity (tumor growth inhibition over time) ([3]; Study 1, intratumoral 0.1, 1, 10 ug twice per week x6 or 50 ug single dose): dose-dependent anti-tumor activity | tumor volume of single remaining mouse ([3]; Study 2, 10 ug intravenous, day 32): 188.0 mm^3 | tumor growth inhibition vs vehicle ([3]; Study 2, 10 ug/mouse intravenous twice per week x6, 15 days after initial dose): statistically significant | tumor volumes of remaining mice not tumor-free [3, 5]: 1500.49 mm^3 and 962.61 mm^3 | tumor-free mice among mice remaining on study [3, 5]: One of the three | increase in survival vs vehicle ([3]; Study 2, 100 ug intravenous, day 32 post tumor cell inoculation): statistically significant increase | tumor growth inhibition vs vehicle ([3]; Study 2, 100 ug/mouse intravenous single dose, 15 days after initial dose): statistically significant | anti-tumor activity (tumor growth inhibition over time) ([3]; Study 2, intravenous 1, 10 ug twice per week x6 or 100 ug single dose): dose-dependent anti-tumor activity | tumor growth inhibition vs vehicle ([3]; Study 3, CRX-601 10 ug/mouse iv once per week x3, alone, 15 days after first dose): did not show statistically significant tumor growth inhibition | tumor growth inhibition vs vehicle ([3]; Study 3, CRX-601 25 ug/mouse iv once per week x3, alone, 15 days after first dose): did not show statistically significant tumor growth inhibition | anti-tumor activity (tumor volume over time) ([3]; Study 4, OX-86 25 ug/mouse twice per week x6, CRX-601 25 ug/mouse iv 1x/week x3, alone or combined): Anti-tumor activity was observed | mice remaining tumor-free at study end ([3]; Study 4, day 111, 25 ug/mouse each agent, monotherapy arms with Rat IgG1 or vehicle, groups of 10): two | tumor growth inhibition vs control Group 5 ([3]; Study 6, CRX-601 25 ug intratumoral 1x/week x3 + Rat IgG1 (Group 6), 0.5% glycerol/4% dextrose): did not show statistically significant tumor growth inhibition | tumor growth inhibition vs control Group 1 ([3]; Study 6, CRX-601 25 ug iv 1x/week x3 + Rat IgG1 (Group 2), 0.5% glycerol/4% dextrose, 12 days after first dose): did not show statistically significant tumor growth inhibition | mice showing full tumor regressions ([3]; Study 7, CRX601 25 ug IV alone (Group 2) or with OX86 IP (Group 4), day 80): 5 out of 10 | increase in survival vs control Group 1 ([3]; Study 7, CRX601 monotherapy IV (Group 2), 80 days after first dose): statistically significant | increase in survival vs control Group 5 ([3]; Study 7, CRX601 monotherapy intratumoral, DOPC/CHOL liposome formulation (Group 7), 80 days): statistically significant | tumor growth inhibition vs control Group 5 ([3]; Study 7, CRX-601 25 ug intratumoral, DOPC/CHOL liposomal formulation + Rat IgG1 (Group 7)): statistically significant | tumor growth inhibition vs control Group 1 ([3]; Study 7, CRX-601 25 ug iv (0.5% Glycerol/4% dextrose) + Rat IgG1 (Group 2), 12 days after initial dose): statistically significant | mice fully regressed and tumor-free ([3]; Study 7, intratumoral liposomal arms: Group 8 combination, Group 6 OX86, Group 7 CRX601, day 80, groups of 10): 2 mice
